Activity calls are given as the source filed them. Peptide text beside a SMILES is read from it.
Key:
[1] = molecular target: T1, Adenylate cyclase (Homo sapiens) (UniProt Q8NFM4+O60503+Q08828+P40145+O60266+O95622+O43306+Q08462+P51828); assay: Agonist activity at adenylyl cyclase (unknown origin) at 1.35 x 10^-4 M; format: protein assay
Gallus gallus = assay: Induction of PTH-like activity in iv dosed chick by hypercalcemic assay; format: functional, organism-based
[2] = molecular target: T1, Adenylate cyclase (Homo sapiens); assay: Inhibition of bPTH-stimulated adenylyl cyclase (unknown origin) activity at 500:1 compound to native hormone molar ratio; format: protein assay

CC(C)C[C@H](NC(=O)[C@H](CO)NC(=O)[C@H](CCCCN)NC(=O)[C@H](CCC(=O)O)NC(=O)[C@H](Cc1cnc[nH]1)NC(=O)[C@H](CO)NC(=O)[C@H](CCC(=O)O)NC(=O)[C@@H](NC(=O)[C@H](CC(C)C)NC(=O)[C@@H](NC(=O)[C@H](CC(N)=O)NC(=O)[C@H](CC(=O)O)NC(=O)[C@H](CCC(=O)O)NC(=O)[C@H](CCCCN)NC(=O)[C@H](CCCCN)NC(=O)[C@H](CCCNC(=N)N)NC(=O)[C@@H]1CCCN1C(=O)[C@H](CCCNC(=N)N)NC(=O)[C@H](CCC(N)=O)NC(=O)[C@H](CO)NC(=O)CNC(=O)[C@H](C)NC(=O)[C@H](CC(=O)O)NC(=O)[C@@H](N)CCCNC(=N)N)C(C)C)C(C)C)C(=O)NCC(=O)O (H-RDAGSQRPRKKEDNVLVESHEKSLG-OH)
inactive: Activity [1] | Activity (Gallus gallus) | inhibition [2]

Reference: ChEMBL document CHEMBL3272337, “Synthesis of a fragment of human parathyroid hormore, hPTH-(44-68)” (J Med Chem, 1977)
